Measured values taken from patent publication US20230330251A1, “METHODS FOR TREATING CANCERS WITH ANTIBODY DRUG CONJUGATES (ADC) THAT BIND TO 191P4D12 PROTEINS” (AGENSYS, INC., priority 2020, published 2023).

Columns and labels:
Assay type in all cases: in vivo, human
[1] = tested on: patients with previously treated locally advanced or metastatic urothelial carcinoma (la/mUC) with poor prognostic factors; assay: EV-301 subgroup analyses of OS, PFS and ORR incl. hard-to-treat subgroups (age ≥65 years, liver metastasis, primary upper tract disease, CPI nonresponse); settings: for ORR, EV vs SC Absolute Difference / Overall response rate (ORR), % / Overall response rate (ORR), n/N: Response-Evaluable Population
Method: Using FAS, the analysis for OS, PFS1 and ORR were repeated by ECOG PS (0 vs 1), regions of the world, and liver metastasis respectively.
In addition, subgroup analyses were conducted for selected endpoints to determine whether the treatment effect is consistent.
Subgroup analyses were prespecified for the primary endpoint of OS and secondary endpoints of investigator-assessed progression-free survival (PFS) and overall response rate (ORR) per RECIST v1.1. Kaplan-Meier analyses compared OS and PFS between treatments for selected hard-to-treat subgroups as follows: age ≥65 years, presence of liver metastasis, primary upper tract disease, and checkpoint inhibitor (CPI) nonresponse. ORR and safety were also evaluated within subgroups. The Cox proportional hazards model was used to estimate hazard ratios. The Cochran-Mantel-Haenszel test was used to compare response and disease control rates between groups.

[2] = tested on: metastatic urothelial cancer patients; assay: Phase 1 study of EV: clinical activity by dose; settings: 1.25 mg/kg dose vs lower doses
Method: (§1) EV will be administered at a dose of 1.25 mg/kg as an intravenous infusion over approximately 30 minutes on Days 1, 8, and 15 of each 28-day cycle. […] A maximum tolerated dose (MTD) was not reached in this study. At the 1 mg/kg dose level, 2 dose- limiting toxicities (DLTs) were observed: Grade 3 proctalgia (later changed to grade 2 by the investigator) thought related to radiation recall and Grade 4 hyperuricemia without clinical sequelae.

[3] = tested on: metastatic urothelial cancer patients and non-metastatic urothelial cancer patients; assay: Phase 1 study of EV, escalating dose levels 0.5-1.25 mg/kg: safety, DLT, MTD
Method: as §1
Moreover, dose reductions due to AEs were more frequent for the 1.25 mg/kg vs lower dose levels.
In the phase 1 study, rash and similar dermatologic AE's were common among patients treated with EV, and were seen more frequently at the highest dose. Although the exact etiology of dermatologic toxicities associated with EV is unclear at this time, due to the expression of nectin-4 in the skin, rash maybe an on target toxicity. The most common type of dermatological AE reported in ASG-22CE-13-2 was maculo-papular rash, rash, skin exfoliation, and skin pigmentation disorder. Most occurred early on (during cycle 1), and some were associated with pruritus. Mild rash due to EV should be treated using local supportive care as needed. Topical corticosteroids have been used along with antihistamines for pruritus as needed.

In the case of enfortumab vedotin, the “Median OS” value ([1]; Age ≥65 yrs) is reported as 14.32 mo, the “Median PFS” value ([1]; Age ≥65 yrs) is reported as 5.65 mo and the “OS, EV vs SC HR” value ([1]; Age ≥65 yrs) is reported as 0.745. The “Overall survival (OS) Events, %” value ([1]; Age ≥65 yrs) was “(44) %”, the “Overall survival (OS) Events, n/N” value ([1]; Age ≥65 yrs) was 85/193 and the “PFS, EV vs SC HR” value ([1]; Age ≥65 yrs) was 0.616. For the same substance, the “Progression-free survival (PFS) Events, %” value ([1]; Age ≥65 yrs) was “(65) %”, the “Progression-free survival (PFS) Events, n/N” value ([1]; Age ≥65 yrs) was 126/193 and the “ORR, EV vs SC Absolute Difference” value ([1]; Age ≥65 yrs) was 20.9%. For the same substance, the “Overall response rate (ORR), %” value ([1]; Age ≥65 yrs) was 40.8%, the “Overall response rate (ORR), n/N” value ([1]; Age ≥65 yrs) was 75/184 and the “Median OS” value ([1]; CPI non-responder) was 11.63 mo. The “Median PFS” value ([1]; CPI non-responder) was 5.42 mo, the “OS, EV vs SC HR” value ([1]; CPI non-responder) was 0.757 and the “Overall survival (OS) Events, %” value ([1]; CPI non-responder) was “(48) %”. For the same substance, the “Overall survival (OS) Events, n/N” value ([1]; CPI non-responder) was 100/207, the “PFS, EV vs SC HR” value ([1]; CPI non-responder) was 0.697 and the “Progression-free survival (PFS) Events, %” value ([1]; CPI non-responder) was “(71) %”. For the same substance, the “Progression-free survival (PFS) Events, n/N” value ([1]; CPI non-responder) was 146/207, the “ORR, EV vs SC Absolute Difference” value ([1]; CPI non-responder) was 22.3% and the “Overall response rate (ORR), %” value ([1]; CPI non-responder) was 39.7%. The “Overall response rate (ORR), n/N” value ([1]; CPI non-responder) was 79/199, the “Median OS” value ([1]; Presence of Liver metastasis) was 9.63 mo and the “Median PFS” value ([1]; Presence of Liver metastasis) was 4.14 mo. For the same substance, the “OS, EV vs SC HR” value ([1]; Presence of Liver metastasis) was 0.660, the “Overall survival (OS) Events, %” value ([1]; Presence of Liver metastasis) was “(57) %” and the “Overall survival (OS) Events, n/N” value ([1]; Presence of Liver metastasis) was 53/93. For the same substance, the “PFS, EV vs SC HR” value ([1]; Presence of Liver metastasis) was 0.597, the “Progression-free survival (PFS) Events, %” value ([1]; Presence of Liver metastasis) was “(76) %” and the “Progression-free survival (PFS) Events, n/N” value ([1]; Presence of Liver metastasis) was 71/93. The “ORR, EV vs SC Absolute Difference” value ([1]; Presence of Liver metastasis) was 24.7%, the “Overall response rate (ORR), %” value ([1]; Presence of Liver metastasis) was 35.5% and the “Overall response rate (ORR), n/N” value ([1]; Presence of Liver metastasis) was 33/93. The “Median OS” value ([1]; Primary upper tract disease) was 12.62 mo, the “Median PFS” value ([1]; Primary upper tract disease) was 5.62 mo and the “OS, EV vs SC HR” value ([1]; Primary upper tract disease) was 0.848. For the same substance, the “Overall survival (OS) Events, %” value ([1]; Primary upper tract disease) was “(45) %”, the “Overall survival (OS) Events, n/N” value ([1]; Primary upper tract disease) was 44/98 and the “PFS, EV vs SC HR” value ([1]; Primary upper tract disease) was 0.716. The “Progression-free survival (PFS) Events, %” value ([1]; Primary upper tract disease) was “(64) %”, the “Progression-free survival (PFS) Events, n/N” value ([1]; Primary upper tract disease) was 63/98 and the “ORR, EV vs SC Absolute Difference” value ([1]; Primary upper tract disease) was 24.8%. For the same substance, the “Overall response rate (ORR), %” value ([1]; Primary upper tract disease) was 43.9%, the “Overall response rate (ORR), n/N” value ([1]; Primary upper tract disease) was 43/98 and the “ORR in hard-to-treat subgroups, EV compared to SC” value ([1]; across all subgroups) was “higher”. For the same substance, the “PFS in hard-to-treat subgroups, EV compared to SC” value ([1]; across all subgroups) was “longer”, the “OS in hard-to-treat subgroups, EV vs SC” value ([1]; liver metastasis, CPI nonresponsive, primary upper tract disease, poor prognostic factors, listed as EV) was “consistently longer” and the “progression-free survival benefit in subgroup analyses” value ([1]; prespecified key subgroups, intention-to-treat population) was “present across multiple subgroups”. The “clinical activity by dose” value [2] was “highest activity”, the “dose-limiting toxicities (DLTs) observed” value ([3]; 1 mg/kg dose level, Grade 3 proctalgia, Grade 4 hyperuricemia) was 2 and the DLT ([3]; 1.25 mg/kg) was “No DLT was observed”. For the same substance, the “dose reductions due to AEs” value ([3]; 1.25 mg/kg vs lower dose levels) was “more frequent”, the “frequency of all TEAEs, AEs leading to withdrawal, and Grade 3-4 TEAEs” value ([3]; across dose levels) was “comparable across all dose levels” and the “Incidence of the most frequent drug-related AEs, such as diarrhea and rash” value ([3]; by dose level, primarily Grades 1-2) was “increased with increasing dose levels”. The “maximum tolerated dose (MTD)” value ([3]; dose levels 0.5, 0.75, 1 and 1.25 mg/kg) was “not reached” and the “rash and similar dermatologic AE's” value ([3]; phase 1 study, more frequent at the highest dose) was “common”.
